Test results reported in patent publication US10912815B2, “Inhibitors of mitochondrial fission and methods of use thereof” (The Board of Trustees of the Leland Stanford Junior …, priority 2011, dated 2021).
“Also recorded” adds a separate entry of the source. No end group written: not given here.

Legend:
[1] = molecular target: T1, OPA1 (Homo sapiens, UniProt O60313); test: In vitro GTPase assay, recombinant OPA1; type: biochemical; details: recombinant OPA1 25 ng, FIG. 2B
T1 sequence (O60313 88-960): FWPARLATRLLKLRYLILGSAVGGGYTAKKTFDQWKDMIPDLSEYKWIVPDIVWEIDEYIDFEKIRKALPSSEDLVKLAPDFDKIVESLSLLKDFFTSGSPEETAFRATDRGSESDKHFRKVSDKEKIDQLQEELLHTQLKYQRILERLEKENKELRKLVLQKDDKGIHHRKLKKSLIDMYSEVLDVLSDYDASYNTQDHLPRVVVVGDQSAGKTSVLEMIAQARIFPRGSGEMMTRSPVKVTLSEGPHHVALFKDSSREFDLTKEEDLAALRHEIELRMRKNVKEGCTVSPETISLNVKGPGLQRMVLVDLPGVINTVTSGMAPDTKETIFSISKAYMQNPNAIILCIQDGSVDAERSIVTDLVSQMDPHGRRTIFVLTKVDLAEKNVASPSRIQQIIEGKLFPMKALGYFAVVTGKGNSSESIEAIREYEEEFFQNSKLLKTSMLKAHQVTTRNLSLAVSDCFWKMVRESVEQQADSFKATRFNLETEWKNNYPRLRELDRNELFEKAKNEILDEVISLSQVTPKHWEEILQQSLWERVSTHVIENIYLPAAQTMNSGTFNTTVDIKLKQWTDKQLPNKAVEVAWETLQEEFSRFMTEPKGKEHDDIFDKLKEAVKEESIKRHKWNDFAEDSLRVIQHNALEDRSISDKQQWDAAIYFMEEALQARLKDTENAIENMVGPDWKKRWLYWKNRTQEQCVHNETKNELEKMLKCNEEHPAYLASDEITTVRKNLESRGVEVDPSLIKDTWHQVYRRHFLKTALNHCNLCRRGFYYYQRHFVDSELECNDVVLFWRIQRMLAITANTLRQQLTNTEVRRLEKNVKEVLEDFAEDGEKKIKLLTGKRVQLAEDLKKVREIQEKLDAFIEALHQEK
Method: First, mitochondrial fission inhibitor constructs were tested to determine what, if any, effects each peptide had on enzyme (GTPase) activity. Recombinant protein Drp1, Mfn1, OPA1 or dynamin-1 (25 ng) was incubated with the indicated modulator peptides for 30 min. GTPase activity was assayed in vitro using a GTPase assay kit (Innova Biosciences, Littleton, USA, or Novus Biologicals, Littleton, Colo.) according to manufacturer's instructions.

[2] = system: SH-SY5Y cells; test: Mitochondrial morphology/fragmentation in SH-SY5Y cells (TOM20 staining); type: cell-based, human; details: for percentage of cells with fragmented mitochondria: P110 1 μM 30 min, FIG. 5
Method: To determine effects of P110 on mitochondrial morphology in response to mitochondrial stresses, an immuno-staining approach was used. In one experiment, SH-SY5Y neuronal cells were treated with Drp1 peptides or Drp1 siRNA followed by treatment of MPP+. The cells were then stained with TOM20 and Hoechst stain.
In another experiment, cultured SH-SY5Y cells were treated with P110 (1 μM) for 30 min followed by incubation with MPP+(2 mM, 4 hrs) or CCCP (5 uM, 30 min). The cells were then stained with anti-Tom 20 antibody (green) and Hoechst stain (scale bar 0.5 μm). Mitochondrial morphology was analyzed using 63× oil lens. The data were analyzed and are presented as a histogram in which the percentage of cells with fragmented mitochondria relative to the total number of cells is presented as the mean±S.E. of 3 independent experiments. At least 200 cells per group were counted.

[3] = system: isolated mouse liver mitochondria with Drp1 recombinant protein; test: Superoxide production of isolated mouse liver mitochondria after addition of recombinant Drp1; type: biochemical; details: isolated mouse liver mitochondria 50 μg, Drp1 50 ng, P110 1 μM, p<0.05, n=3, FIG. 6C
Method: Mitochondrial membrane potential was also determined using TMRM (tetramethylrhodamine methylester). Fifty μg of mitochondria were incubated with recombinant Drp1 (50 ng) followed by incubation with TMRM (0.5 μM) in the presence or absence of P110 (1 μM) or NAC (2.5 mM). Fluoresence detection was performed using black 96-well plates in a fluorescence microplate reader at 560 nm excitation and 690 nm emission and potential was assessed by quenching of the fluorescent signal. The data are presented as mean±S.E. of percentage relative to control mitochondria from three independent experiments (FIG. 6B, #, p<0.05 vs. control cells; *, p<0.05; **, P<0.01 vs. MPP+- or CCCP-treated cells). Isolated mouse liver mitochondria (50 μg) were incubated with Drp1 recombinant protein (50 ng) in the presence or absence of P110 (1 μM). A kinetic change of mitochondrial superoxide production was determined by using MITOSOX™ (red mitochondrial superoxide indicator). […] Mitochondrial membrane potential of isolated mouse liver mitochondria was determined by TMRM, as described above, in the indicated groups. […] Protein levels of cytochrome c in the mitochondria were determined by western blot analysis with anti-cytochrome c antibodies in the indicated groups (insert, FIG. 6D). Total ROS production was determined by staining SH-SY5Y cells with CM2HDCFA (1 μM […] at 37° C.) in the indicated groups. […]

[4] = system: SH-SY5Y cells
Method: Cell viability of stressed SH-SY5Y cells was measured by MTT assay.
In another experiment, Human SH-SY5Y cells were treated with Drp1 P108, P109 or P110 or Fis1 P111, P112 or P113 (0.5 μM) for 15 min followed by treatment with MPP+(1 mM for 24 hrs). The cell viability was then determined by MTT test.

[5] = system: SH-SY5Y cells; test: Apoptosis markers on mitochondria of SH-SY5Y cells (western blot: NT-Bax, cytochrome c, Bcl-2); type: cell-based, human; details: MPP+ 2 mM 1 hour, FIG. 9A
Method: SH-SY5Y neuronal cells were treated with P110 followed by the exposure to MPP+(2 mM for 1 hour). Active form of Bax (NT-Bax), cytochrome c and Bcl-2 on the mitochondria were determined by western blot analysis with the indicated antibodies. Shown are representative data of three independent experiments. Quantification of the data are provided as mean±SE of three independent experiments.

With “RRRQRRKKRGYGGDLLPRGS (RRRQRRKKRGYGGDLLPRGS-NH2) [P110, TAT47-57 carrier, GG linker, Drp1 region 110 (GTPase domain) peptide DLLPRGS; C-terminus C(O)-NH2]” the “effect on GTPase activity of OPA1” value [1] was “no effects”, the “percentage of cells with fragmented mitochondria” value ([2]; then CCCP 5 uM 30 min, 63% without P110) was 23% and the “percentage of cells with fragmented mitochondria” value ([2]; then MPP+ 2 mM 4 hrs, 50% without P110) was 14%. For the same sequence, the “reduction of mitochondrial fragmentation in cells exposed to MPP+” value ([2]; SH-SY5Y, MPP+, p<0.01, n=3, FIG. 4A, 4B) was 70%, the “mitochondrial morphology/network in control (non-stressed) cells” value ([2]; SH-SY5Y, no stressor) was “minimal effects; also recorded: no effect; also recorded: did not observe dramatic difference” and the “Drp1-induced ROS (superoxide) elevation in the mitochondria” value [3] was “abolished”. For the same sequence, the “mitochondrial damage and neuronal cell death (MTT)” value ([4]; peptides 0.5 μM 15 min, MPP+ 1 mM for 24 hrs, n=7-8, FIG. 9F) was “reduced mitochondrial damage and neuronal cell death”, the “cell viability (MTT)” value ([4]; peptides 1 μM each, MPP+ 2 mM for 24 hours, FIG. 9E) was “improved cell viability” and the “Bcl-2 levels on the mitochondria” value [5] was “improved decreased Bcl-2 levels”. The “accumulation of active Bax on the mitochondria” value [5] was “greatly reduced accumulation of active Bax” and the “release of cytochrome c from the mitochondria” value [5] was “blocked the release of cytochrome c”.
